Biological target: human full length PIK3CA H1047R mutant (p110α/p85α complex) (Homo sapiens (Human), UniProt P42336, H1047R)
Assay: PI3K-Alpha kinase (PIK3CA) activity, H1047R mutant, Transcreener ADP2 FI assay
Conditions: PI3K-α (PIK3CA) H1047R mutant, biochemical
Procedure: (§1) PI3K-Alpha kinase (PIK3CA) activity, wild-type and H1047R mutant and determining IC50 values for inhibitors
(§2) Recombinant, catalytically active human full length PIK3KA Wild-type and H1047R mutant were purchased as 1:1 complex of N-terminal 6×his tagged p110<(catalytic) and untagged p85<(regulatory subunit) from EMD Millipore Sigma (cat. no. 14-602M and 14-792M, respectively). The enzyme stocks were diluted to 5× stocks in buffer (20 mM HEPES pH 7.4, 100 mM NaCl, 0.5 mM EGTA, 0.01% triton-x-100) just before use. PIP2diC8 (Avanti Polar Lipids Inc., cat. no. 850185) or phosphoinositol-4,5-bisphosphate with phosphoserine (PIP2:PS) membrane (Thermo Fisher Scientific, cat. no. PV5100) was used as lipid substrates. PIP2diC8 lyophilized powder and PIP2:PS (1:19) membrane stock (1 mM in PIP2) were separately dissolved in milliQ water to a concentration of 250 uM and stored in −20° C. 10 mM stocks of compounds were serially diluted (3×) in neat DMSO and stored in a dessicator at room temperature. 5× compound stocks in 25% DMSO were prepared fresh from neat DMSO stocks. Wild-type (WT) and H1047R mutant protein, along with buffer components (except ATP), were incubated with or without compound at 27° C. for 1h. After incubation, the reaction was initiated by the addition of 5 uL of 125 uM ATP. A typical assay mixture (25 uL) comprised 40 mM HEPES buffer, pH 7.4, 25 mM MgCl2, 0.01% v/v triton-X-100, 5% v/v DMSO, 20 mM NaCl, 1-5 nM wt or H1047R, 25 uM ATP, and 50 uM PTP2diC8 or PTP2 in membrane. The reaction was allowed to proceed until about […] (2.5 uM ADP) after which time, 10 uL of reaction mixture was quenched with 25 uL of transcreener reagent (Transcreener ADP2 FI assay kit, BellBrook labs, Cat. No. 3013). The contents were incubated at rt for 1h and fluorescence was measured using a plate reader (Paradigm, Molecular Devices). The same assay was also run at pH 6.0 or 6.4 using MOPS buffer (Fisher BioReagents, CAS 1132-61-2). A calibration curve was generated under identical buffer conditions with varying ADP amounts. Using that, the observed fluorescence was converted to uM ADP. A plot between [ADP] and log[I] yielded the dose-response curves that enabled the calculation of IC50s.

Sequence of human full length PIK3CA H1047R mutant (p110α/p85α complex) (P42336 whole entry H1047R): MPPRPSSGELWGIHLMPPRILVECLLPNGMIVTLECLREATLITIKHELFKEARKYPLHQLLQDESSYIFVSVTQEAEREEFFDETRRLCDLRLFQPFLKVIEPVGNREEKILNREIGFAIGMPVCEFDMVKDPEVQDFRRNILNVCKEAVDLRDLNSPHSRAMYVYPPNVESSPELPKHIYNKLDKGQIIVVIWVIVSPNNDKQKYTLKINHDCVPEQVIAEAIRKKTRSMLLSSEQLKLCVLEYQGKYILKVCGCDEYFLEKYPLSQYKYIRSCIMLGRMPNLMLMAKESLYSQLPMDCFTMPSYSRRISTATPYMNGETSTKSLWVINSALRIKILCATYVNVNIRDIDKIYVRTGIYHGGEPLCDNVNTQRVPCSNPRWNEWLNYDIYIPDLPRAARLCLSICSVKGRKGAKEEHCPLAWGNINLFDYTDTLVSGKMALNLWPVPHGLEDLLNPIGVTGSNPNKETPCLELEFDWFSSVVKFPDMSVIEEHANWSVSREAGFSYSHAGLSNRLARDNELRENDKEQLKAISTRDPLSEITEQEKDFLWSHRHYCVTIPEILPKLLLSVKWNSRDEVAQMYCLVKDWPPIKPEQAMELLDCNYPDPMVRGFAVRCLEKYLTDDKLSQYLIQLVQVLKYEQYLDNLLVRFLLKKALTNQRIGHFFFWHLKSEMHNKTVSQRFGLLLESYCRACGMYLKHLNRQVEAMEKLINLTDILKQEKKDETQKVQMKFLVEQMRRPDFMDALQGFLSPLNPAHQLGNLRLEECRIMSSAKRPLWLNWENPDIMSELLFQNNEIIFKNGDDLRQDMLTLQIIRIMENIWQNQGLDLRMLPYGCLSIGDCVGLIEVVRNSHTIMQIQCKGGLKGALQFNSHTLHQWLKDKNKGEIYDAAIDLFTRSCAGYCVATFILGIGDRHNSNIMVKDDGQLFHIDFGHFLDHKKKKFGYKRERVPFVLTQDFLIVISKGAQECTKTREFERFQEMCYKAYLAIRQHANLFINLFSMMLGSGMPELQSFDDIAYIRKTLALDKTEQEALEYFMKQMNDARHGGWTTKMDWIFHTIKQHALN
Sequence of human full length PIK3CA H1047R mutant (p110α/p85α complex) (P27986 whole entry partner): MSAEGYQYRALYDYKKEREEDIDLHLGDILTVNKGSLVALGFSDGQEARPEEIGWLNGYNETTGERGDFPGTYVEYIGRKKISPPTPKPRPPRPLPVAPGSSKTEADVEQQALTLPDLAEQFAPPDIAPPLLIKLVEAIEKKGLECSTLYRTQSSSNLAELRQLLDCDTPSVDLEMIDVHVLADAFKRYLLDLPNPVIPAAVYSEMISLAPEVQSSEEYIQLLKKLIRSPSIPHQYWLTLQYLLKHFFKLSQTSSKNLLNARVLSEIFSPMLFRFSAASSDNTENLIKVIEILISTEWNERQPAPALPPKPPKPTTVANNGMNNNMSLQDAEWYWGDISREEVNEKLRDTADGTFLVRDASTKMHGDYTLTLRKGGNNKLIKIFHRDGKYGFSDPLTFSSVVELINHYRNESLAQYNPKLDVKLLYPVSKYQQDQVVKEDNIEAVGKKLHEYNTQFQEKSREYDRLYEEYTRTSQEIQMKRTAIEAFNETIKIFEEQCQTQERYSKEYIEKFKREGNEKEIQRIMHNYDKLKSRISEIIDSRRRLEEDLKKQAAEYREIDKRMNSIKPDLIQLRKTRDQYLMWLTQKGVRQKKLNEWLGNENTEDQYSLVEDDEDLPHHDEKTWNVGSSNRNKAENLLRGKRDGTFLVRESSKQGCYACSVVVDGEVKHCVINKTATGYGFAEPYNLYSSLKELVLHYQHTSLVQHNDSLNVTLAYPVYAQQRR

| Structure (SMILES) | IC50 [nM] |
| --- | --- |
| COc1ccc(NC(C)c2cc(C)cc3c(=O)cc(N4Cc5ccccc5C4)oc23)c(C(=O)O)n1 (stereo not drawn) [Example 237, 3-[1-(2-Isoindolin-2-yl-6-methyl-4-oxo-chromen-8-yl)ethylamino]-6-methoxy-pyridine-2-carboxylic acid] | 5000 to 10000 |
| Cc1cc(C(C)Nc2ccccc2C(=O)O)c2oc(N3CCn4cnnc4C3)cc(=O)c2c1 (stereo not drawn) [Example 163, 2-[1-[2-(6,8-Dihydro-5H-[1,2,4]triazolo[4,3-a]pyrazin-7-yl)-6-methyl-4-oxo-chromen-8-yl]ethylamino]benzoic acid] | 1000 to 5000 |
| Cc1cc(C(C)Nc2cccc(F)c2C(=O)O)c2oc(N3Cc4ccc(F)cc4C3)cc(=O)c2c1 (stereo not drawn) [Example 238, 2-Fluoro-6-[1-[2-(5-fluoroisoindolin-2-yl)-6-methyl-4-oxo-chromen-8-yl]ethylamino]benzoic acid] | 1000 to 5000 |
| Cc1cc(C(C)Nc2ccccc2C(=O)O)c2oc(NC34CC5CC(CC(CO)(C5)C3)C4)cc(=O)c2c1 (stereo not drawn) [Example 169] | 1000 to 5000 |

Further lines, results first:

| IC50 [nM] | Structure (SMILES) |
| --- | --- |
| < 500 | Cc1cc(C(C)Nc2ccccc2C(=O)O)c2oc(N3CCC(C)(C)CC3)c(-c3cnoc3)c(=O)c2c1 (single isomer, unassigned) [Example 53] |
| 1000 to 5000 | Cc1cc(C(C)Nc2ccccc2C(=O)O)c2oc(N3CCCC4(CNC(=O)C4)C3)cc(=O)c2c1 (stereo not drawn) [Example 61, 2-[1-[6-Methyl-4-oxo-2-(3-oxo-2,7-diazaspiro[4.5]decan-7-yl)chromen-8-yl]ethylamino]benzoic acid] |
| 500 to 1000 | COC1CCN(c2cc(=O)c3cc(C)cc(C(C)Nc4ccccc4C(=O)O)c3o2)CC1 (stereo not drawn) [Example 373, 2-[1-[2-(4-Methoxy-1-piperidyl)-6-methyl-4-oxo-chromen-8-yl]ethylamino]benzoic acid] |
| 1000 to 5000 | Cc1cc(C(C)Nc2ccccc2C(=O)O)c2oc(N3CC4CCC(C3)O4)cc(=O)c2c1 (stereo not drawn) [Example 82, 2-[1-[6-Methyl-2-(8-oxa-3-azabicyclo[3.2.1]octan-3-yl)-4-oxo-chromen-8-yl]ethylamino]benzoic acid] |
| 1000 to 5000 | Cc1cc(C(C)Nc2ccsc2C(=O)O)c2oc(N3CCC(C)(C)CC3)cc(=O)c2c1 (stereo not drawn) [Example 39, 3-[1-[2-(4,4-Dimethyl-1-piperidyl)-6-methyl-4-oxo-chromen-8-yl]ethylamino]thiophene-2-carboxylic acid] |
| 1000 to 5000 | Cc1cc(C(C)Nc2ccccc2C(=O)O)c2oc(N3CCS(=O)(=O)CC3)cc(=O)c2c1 (stereo not drawn) [Example 117, 2-[1-[2-(1,1-Dioxo-1,4-thiazinan-4-yl)-6-methyl-4-oxo-chromen-8-yl]ethylamino]benzoic acid] |
| 1000 to 5000 | Cc1cc(C(C)Nc2ccccc2C(=O)O)c2oc(N3CC(N(C)C)C3)cc(=O)c2c1 (stereo not drawn) [Example 68, 2-[1-[2-[3-(Dimethylamino)azetidin-1-yl]-6-methyl-4-oxo-chromen-8-yl]ethylamino]benzoic acid] |
| 1000 to 5000 | CNC(=O)C1CCN(c2cc(=O)c3cc(C)cc(C(C)Nc4ccccc4C(=O)O)c3o2)CC1 (stereo not drawn) [Example 371, 2-[1-[6-Methyl-2-[4-(methylcarbamoyl)-1-piperidyl]-4-oxo-chromen-8-yl]ethylamino]benzoic acid] |

Biological target: human full length PIK3CA Wild-type (p110α/p85α complex) (Homo sapiens (Human), UniProt P42336)
Assay: PI3K-Alpha kinase (PIK3CA) activity, wild-type, Transcreener ADP2 FI assay
Conditions: PI3K-α (PIK3CA) wild-type, biochemical
Procedure: as §1, §2

Sequence of human full length PIK3CA Wild-type (p110α/p85α complex) (P42336 whole entry): as the sequence (P42336 whole entry H1047R) above, with R1047H counted along it
Sequence of human full length PIK3CA Wild-type (p110α/p85α complex) (P27986 whole entry partner): as the sequence (P27986 whole entry partner) above

| Structure (SMILES) | IC50 [nM] |
| --- | --- |
| Cc1cc(C(C)Nc2ccccc2C(=O)O)c2oc(N3CCn4cccc4C3)cc(=O)c2c1 (stereo not drawn) [Example 171, 2-[1-[2-(3,4-Dihydro-1H-pyrrolo[1,2-a]pyrazin-2-yl)-6-methyl-4-oxo-chromen-8-yl]ethylamino]benzoic acid] | 500 to 1000 |
| Cc1cc(C(C)Nc2ccccc2C(=O)O)c2oc(N3CC(C(C)(F)F)C3)cc(=O)c2c1 (stereo not drawn) [Example 189, 2-[1-[2-[3-(1,1-Difluoroethyl)azetidin-l-yl]-6-methyl-4-oxo-chromen-8-yl]ethylamino]benzoic acid 2,2,2-trifluoroacetic acid] | 1000 to 5000 |
| Cc1cc(C(C)Nc2sc(Cl)nc2C(=O)O)c2oc(N3Cc4ccccc4C3)cc(=O)c2c1 (stereo not drawn) [Example 245, 2-Chloro-5-[1-(2-isoindolin-2-yl-6-methyl-4-oxo-chromen-8-yl)ethylamino]thiazole-4-carboxylic acid 2,2,2-trifluoroacetic acid] | 500 to 1000 |
| CC(Nc1ccccc1C(=O)O)c1cc(C(F)(F)F)cc2c(=O)cc(N3CCC(F)(F)CC3)oc12 (stereo not drawn) [Example 396, 2-[1-[2-(4,4-Difluoro-1-piperidyl)-4-oxo-6-(trifluoromethyl)chromen-8-yl]ethylamino]benzoic acid 2,2,2-trifluoroacetic acid] | 1000 to 5000 |
| Cc1cc(C(C)Nc2ccccc2C(=O)O)c2oc(N3CCc4ccccc4C3)cc(=O)c2c1 (stereo not drawn) [Example 233, 2-[1-[2-(3,4-Dihydro-1H-isoquinolin-2-yl)-6-methyl-4-oxo-chromen-8-yl]ethylamino]benzoic acid] | 1000 to 5000 |
| Cc1cc(C(C)Nc2ccc(Cl)nc2C(=O)O)c2oc(N3Cc4ccc5c(c4C3)OCO5)cc(=O)c2c1 (stereo not drawn) [Example 299, 6-Chloro-3-[1-[2-(6,8-dihydro-[1,3]dioxolo[4,5-e]isoindol-7-yl)-6-methyl-4-oxo-chromen-8-yl]ethylamino]pyridine-2-carboxylic acid] | 500 to 1000 |
| Cc1cc(C(C)Nc2ccccc2C(=O)O)c2oc(N3CC4CC(C4)C3)cc(=O)c2c1 (stereo not drawn) [Example 177, 2-[1-[2-(3-Azabicyclo[3.1.1]heptan-3-yl)-6-methyl-4-oxo-chromen-8-yl]ethylamino]benzoic acid 2,2,2-trifluoroacetic acid] | 1000 to 5000 |
| Cc1cc(C(C)Nc2ccccc2C(=O)O)c2oc(N3Cc4ccc(F)cc4C3)cc(=O)c2c1 (stereo not drawn) [Example 105, 2-[1-[2-(5-Fluoroisoindolin-2-yl)-6-methyl-4-oxo-chromen-8-yl]ethylamino]benzoic acid] | 5000 to 10000 |
| Cc1cc(C(C)Nc2ccc(Cl)nc2C(=O)O)c2oc(N3CCC4(CC3)CC4)c(C)c(=O)c2c1 (stereo not drawn) [Example 302, 3-[1-[2-(6-Azaspiro[2.5]octan-6-yl)-3,6-dimethyl-4-oxo-chromen-8-yl]ethylamino]-6-chloro-pyridine-2-carboxylic acid] | 500 to 1000 |
| Cc1cc([C@@H](C)Nc2ccccc2C(=O)O)c2oc(N3CCC(C#N)(c4ccccc4)CC3)c(C)c(=O)c2c1 [Example 288, 2-[[(1R)-1-[2-(4-Cyano-4-phenyl-1-piperidyl)-3,6-dimethyl-4-oxo-chromen-8-yl]ethyl]amino]benzoic acid] | 500 to 1000 |
| Cc1cc(C(C)Nc2ccc(Cl)nc2C(=O)O)c2oc(N3Cc4ccc(F)cc4C3)cc(=O)c2c1 (stereo not drawn) [Example 297, 6-Chloro-3-[1-[2-(5-fluoroisoindolin-2-yl)-6-methyl-4-oxo-chromen-8-yl]ethylamino]pyridine-2-carboxylic acid] | 1000 to 5000 |
| Cc1cc([C@@H](C)Nc2ccccc2C(=O)O)c2oc(N3CC4(CCC4(F)F)C3)c(C)c(=O)c2c1 [Example 289, 2-[[(1R)-1-[2-(7,7-Difluoro-2-azaspiro[3.3]heptan-2-yl)-3,6-dimethyl-4-oxo-chromen-8-yl]ethyl]amino]benzoic acid] | 500 to 1000 |

More lines, now with the values ahead:

| IC50 [nM] | Structure (SMILES) |
| --- | --- |
| 500 to 1000 | Cc1cc(C(C)Nc2ccccc2C(=O)O)c2oc(N3CCC(C)(C)CC3)c(-c3cnoc3)c(=O)c2c1 (single isomer, unassigned) [Example 53] |
| 5000 to 10000 | Cc1cc(C(C)Nc2ccccc2C(=O)O)c2oc(N3CCCC(C)(C)C3)cc(=O)c2c1 (stereo not drawn) [Example 65, 2-[1-[2-(3,3-Dimethyl-1-piperidyl)-6-methyl-4-oxo-chromen-8-yl]ethylamino]benzoic acid] |
| 5000 to 10000 | Cc1cc(C(C)Nc2ccccc2C(=O)O)c2oc(N3CC4(CCCCC4)C3)cc(=O)c2c1 (stereo not drawn) [Example 88, 2-[1-[2-(2-Azaspiro[3.5]nonan-2-yl)-6-methyl-4-oxo-chromen-8-yl]ethylamino]benzoic acid] |
| 1000 to 5000 | CC(Nc1ccccc1C(=O)O)c1cc(F)cc2c(=O)cc(N3CCC4(CC3)CC4)oc12 (stereo not drawn) [Example 398, 2-[1-[2-(6-Azaspiro[2.5]octan-6-yl)-6-fluoro-4-oxo-chromen-8-yl]ethylamino]benzoic acid 2,2,2-trifluoroacetic acid] |
| 1000 to 5000 | CCc1c(N2CCC(C)(C)CC2)oc2c(C(C)Nc3ccccc3C(=O)O)cc(C)cc2c1=O (stereo not drawn) [Example 55, 2-[1-[2-(4,4-dimethyl-1-piperidyl)-3-ethyl-6-methyl-4-oxo-chromen-8-yl]ethylamino]benzoic acid] |
| 1000 to 5000 | CC(Nc1ccccc1C(=O)O)c1cc(F)cc2c(=O)cc(N3CCC(F)(F)CC3)oc12 (stereo not drawn) [Example 399] |
